Test results: US20190314318A1, “SUPPRESSION AND PREVENTION OF TUMORS AND TREATMENT OF VIRUSES” (priority 2018, published 2019)

Assays:
[1] = Additional benefits observed in people taking betaine; assay type: in vivo, human
Excerpt: Betaine is known to improve cardiovascular health, and can benefit people with fatty deposits in the liver. […] After only a few weeks of taking the betaine, cholesterol levels are reduced and the ability to lose weight is improved.

[2] = in vivo; cited from earlier work
[3] = after only a few weeks of taking the betaine

**Q.** What does the source list for `C[N+](C)(C)CC(=O)[O-]` [betaine, trimethylglycine]?
**A.** tendency to be light headed on getting up after prolonged squatting or kneeling ([1]; a few doses of betaine at about one and a half to about three grams per day, especially older people): considerably lessened; ability to lose weight [1, 3]: improved; cholesterol levels [1, 3]: reduced; serious side effects [2]: no known serious side effects
